Active and inactive are the calls of the source. The calls are words filed in the database; no cut-off is given here.
Tests used:
Mus musculus [1] = species: Mus musculus; assay: Induction of AMPKalpha phosphorylation at Thr172 residue in mouse 3T3L1 cells at 2 mM after 4 hrs by Western blot analysis; type: cell-based
Mus musculus [2] = species: Mus musculus; assay: Activation of AMPK pathway in mouse 3T3L1 cells assessed as decrease in […] mRNA level measured on day 6 post treatment by RT-PCR method; type: cell-based
Mus musculus [3] = species: Mus musculus; assay: Induction of AMPKalpha phosphorylation at Thr172 residue in mouse 3T3L1 cells measured on day 3 post treatment by Western blot analysis; type: cell-based
3T3-L1 [4] = assay: Lipid lowering activity in mouse 3T3L1 cells assessed as decrease in triglyceride level at 10 uM for 6 days by oil red o-staining based microscopic assay; type: functional, cell-based
3T3-L1 [5] = assay: Cell cycle arrest in mouse 3T3L1 cells assessed as decrease in S-phase at 1 to 10 uM after 24 hrs by propidium iodide staining based FACS analysis; type: functional
HepG2 [6] = assay: Lipid lowering activity in human HepG2 cells assessed as decrease in triglyceride level at 10 uM for 6 days in presence of oleic acid by oil red o-staining based assay relative to control; type: functional; parameters: scale not given: the % may be the effect or the level left
Mus musculus [7] = species: Mus musculus; assay: Activation of AMPK pathway in mouse 3T3L1 cells assessed as reduction in C/EBPdelta protein expression at 5 uM after 4 hrs by Western blot analysis; type: cell-based
3T3-L1 [8] = assay: Cytotoxicity against mouse 3T3L1 cells assessed as decrease in cell viability after 24 hrs by MTT assay; type: cell-based; details: 3T3-L1, 24 h
3T3-L1 [9] = assay: Inhibition of cell proliferation in mouse 3T3L1 cells assessed as reduction in adipogenic cocktail-induced mitotic cell clonal expansion at 1 to 10 uM after 72 hrs by hemocytometric method; type: functional, cell-based
3T3-L1 [10] = assay: Lipid lowering activity in mouse 3T3L1 cells assessed as inhibition of adipogenesis by measuring decrease in triglyceride level at 5 uM treated on day 0 to 3 starting from 2 days post confluent by oil red o-staining based assay relative to control; type: functional
3T3-L1 [11] = assay: Cell cycle arrest in mouse 3T3L1 cells assessed as accumulation at G0/G1 phase at 5 uM after 24 hrs by propidium iodide staining based FACS analysis (reference value: 48.7%); type: functional
Mus musculus [12] = species: Mus musculus; assay: Activation of AMPK pathway in mouse 3T3L1 cells assessed as decrease in C/EBPalpha mRNA level at 1 to 10 uM measured on day 3 post treatment by RT-PCR method; type: cell-based
Mus musculus [13] = species: Mus musculus; assay: Activation of AMPK pathway in mouse 3T3L1 cells assessed as induction of […] phosphorylation at Ser79 residue measured on day 6 post treatment by Western blot analysis; type: cell-based
Mus musculus [14] = species: Mus musculus; assay: Activation of AMPK pathway in mouse 3T3L1 cells assessed as decrease in SREBP-1c mRNA level at 1 to 10 uM measured on day 6 post treatment by RT-PCR method; type: cell-based
Mus musculus [15] = species: Mus musculus; assay: Activation of AMPK pathway in mouse 3T3L1 cells assessed as decrease in C/EBPbeta mRNA level measured after 24 hrs by RT-PCR method; type: cell-based
Mus musculus [16] = species: Mus musculus; assay: Activation of AMPK pathway in mouse 3T3L1 cells assessed as reduction in C/EBPdelta protein expression at 2 mM after 4 hrs by Western blot analysis; type: cell-based
Mus musculus [17] = species: Mus musculus; assay: Activation of AMPK pathway in mouse 3T3L1 cells assessed as reduction in C/EBPbeta protein expression at 5 uM after 4 hrs by Western blot analysis; type: cell-based
3T3-L1 [18] = assay: Lipid lowering activity in mouse 3T3L1 cells assessed as decrease in triglyceride level at 10 uM for 6 days by oil red o-staining based assay relative to control; type: functional; parameters: scale not given: the % may be the effect or the level left
Mus musculus [19] = species: Mus musculus; assay: Activation of AMPK pathway in mouse 3T3L1 cells assessed as decrease in C/EBPgamma mRNA level measured after 24 hrs by RT-PCR method; type: cell-based
3T3-L1 [20] = assay: Lipid lowering activity in mouse 3T3L1 cells assessed as decrease in triglyceride level treated 2 days post confluent for 9 days by oil red o-staining based assay; type: functional, cell-based
3T3-L1 [21] = assay: Lipid lowering activity in mouse 3T3L1 cells assessed as decrease in triglyceride level at 5 uM treated on day 0 to 6 starting from 2 days post confluent by oil red o-staining based assay relative to control; type: functional; parameters: scale not given: the % may be the effect or the level left
Mus musculus [22] = species: Mus musculus; assay: Induction of AMPKalpha phosphorylation at Thr172 residue in mouse 3T3L1 cells at 5 uM after 4 hrs by Western blot analysis; type: cell-based
3T3-L1 [23] = assay: Lipid lowering activity in mouse 3T3L1 cells assessed as decrease in triglyceride level at 5 uM by oil red o-staining based assay; type: functional, cell-based; details: TDE = time-dependent effect
Mus musculus [24] = species: Mus musculus; assay: Activation of AMPK pathway in mouse 3T3L1 cells assessed as reduction in C/EBPbeta protein expression at 2 mM after 4 hrs by Western blot analysis; type: cell-based
3T3-L1 [25] = assay: Cell cycle arrest in mouse 3T3L1 cells assessed as accumulation at G0/G1 phase at 10 uM after 24 hrs by propidium iodide staining based FACS analysis (reference value: 48.7%); type: functional
HepG2 [26] = assay: Cytotoxicity against human HepG2 cells assessed as decrease in cell viability after 24 hrs by MTT assay; type: cell-based; details: HepG2, 24 h
Mus musculus [27] = species: Mus musculus; assay: Activation of AMPK pathway in mouse 3T3L1 cells assessed as decrease in PPARgamma mRNA level at 1 to 10 uM measured on day 3 post treatment by RT-PCR method; type: cell-based
3T3-L1 [28] = assay: Cell cycle arrest in mouse 3T3L1 cells assessed as accumulation at G0/G1 phase at 1 uM after 24 hrs by propidium iodide staining based FACS analysis (reference value: 48.7%); type: functional
Mus musculus [29] = species: Mus musculus; assay: Activation of AMPK pathway in mouse 3T3L1 cells assessed as decrease in FAS mRNA level measured on day 6 post treatment by RT-PCR method; type: cell-based
Mus musculus [30] = species: Mus musculus; assay: Activation of AMPK pathway in mouse 3T3L1 cells assessed as decrease in SCD1 mRNA level measured on day 6 post treatment by RT-PCR method; type: cell-based
3T3-L1 [31] = assay: Cytotoxicity against mouse 3T3L1 cells assessed as decrease in cell viability up to 10 uM measured up to 72 hrs by LDH release assay; type: cell-based; details: 3t3-l1, 72 h
3T3-L1 [32] = assay: Lipid lowering activity in mouse 3T3L1 cells assessed as inhibition of terminal differentiation stage by measuring decrease in triglyceride level at 5 uM treated on day 6 to 9 starting from 2 days post confluent by oil red o-staining based assay relative to control; type: functional
3T3-L1 [33] = assay: Lipid lowering activity in mouse 3T3L1 cells assessed as decrease in triglyceride level at 5 uM treated on day 0 to 9 starting from 2 days post confluent by oil red o-staining based assay relative to control; type: functional; parameters: scale not given: the % may be the effect or the level left
3T3-L1 [34] = assay: Lipid lowering activity in mouse 3T3L1 cells assessed as inhibition of lipogenesis by measuring decrease in triglyceride level at 5 uM treated on day 3 to 6 starting from 2 days post confluent by oil red o-staining based assay relative to control; type: functional
[35] = Solubility of the compound; type: physicochemical

NC(=O)c1ncn([C@@H]2O[C@H](CO)[C@@H](O)[C@H]2O)c1N
Activity (Mus musculus [1]): Active

Fc1c(-c2nc(NCCCN3CCCC3)c3ccccc3n2)[nH]c2ccccc12
Activity (Mus musculus [2]): Dose-dependent effect | Activity (Mus musculus [3]): Active | Activity (3T3-L1 [4]): Active | Activity (3T3-L1 [5]): Active | Activity (HepG2 [6]): 20.8% | Activity (Mus musculus [7]): Active | IC50 (3T3-L1 [8]): 37.7 µM | inhibition (3T3-L1 [9]): Active | inhibition at 5 µM (3T3-L1 [10]): 71.1% | Activity (3T3-L1 [11]): 66.1% | Activity (Mus musculus [12]): Active | Activity (Mus musculus [13]): Active | Activity (Mus musculus [14]): Active | Activity (Mus musculus [15]): Dose-dependent effect | Activity (Mus musculus [16]): Active | Activity (Mus musculus [17]): Active | Activity (3T3-L1 [18]): 79.1% | Activity (Mus musculus [19]): Dose-dependent effect | Activity (3T3-L1 [20]): Dose-dependent effect | EC50 (3T3-L1 [20]): 0.24 µM | Activity (3T3-L1 [21]): 74.2% | Activity (Mus musculus [22]): Active | Activity (3T3-L1 [23]): Tde | Activity (Mus musculus [24]): Active | Activity (3T3-L1 [25]): 77.6% | IC50 (HepG2 [26]): 25.1 µM | Activity (Mus musculus [27]): Active | Activity (3T3-L1 [28]): 60.8% | Activity (Mus musculus [29]): Dose-dependent effect | Activity (Mus musculus [30]): Dose-dependent effect | Activity (3T3-L1 [31]): Non-Toxic | inhibition at 5 µM (3T3-L1 [32]): 22.1% | Activity (3T3-L1 [33]): 80.5% | inhibition at 5 µM (3T3-L1 [34]): 51.6%

Fc1c(-c2nc(Cl)c3ccccc3n2)[nH]c2ccccc12
Activity (3T3-L1 [4]): Active | Activity (HepG2 [6]): 40.7% | IC50 (3T3-L1 [8]): > 50 µM | Activity (3T3-L1 [18]): 71.8% | Activity (3T3-L1 [20]): Dose-dependent effect | EC50 (3T3-L1 [20]): 0.92 µM | IC50 (HepG2 [26]): > 50 µM | Activity (3T3-L1 [31]): Non-Toxic

O=Cc1c(-c2nc3ccccc3c(=O)[nH]2)[nH]c2ccccc12
Activity (3T3-L1 [4]): Active | Activity (HepG2 [6]): 24.1% | IC50 (3T3-L1 [8]): > 50 µM | solubility [35]: Insoluble | Activity (3T3-L1 [18]): 20.1% | IC50 (HepG2 [26]): > 50 µM

CN(C)CCCNc1nc(-c2[nH]c3ccccc3c2Br)nc2ccccc12
Activity (3T3-L1 [4]): Active | Activity (HepG2 [6]): 28.3% | IC50 (3T3-L1 [8]): 11.6 µM | Activity (3T3-L1 [18]): 59.2% | IC50 (HepG2 [26]): 4.3 µM

CN(C)CCNc1nc(-c2[nH]c3ccccc3c2Br)nc2ccccc12
Activity (3T3-L1 [4]): Active | Activity (HepG2 [6]): 46.1% | IC50 (3T3-L1 [8]): 11.4 µM | Activity (3T3-L1 [18]): 56.4% | IC50 (HepG2 [26]): 4.1 µM

CC(C)CNc1nc(-c2[nH]c3ccccc3c2Cl)nc2ccccc12
Activity (3T3-L1 [4]): Active | Activity (HepG2 [6]): 42.8% | IC50 (3T3-L1 [8]): > 50 µM | Activity (3T3-L1 [18]): 45.7% | IC50 (HepG2 [26]): 22.8 µM

O=c1[nH]c(-c2[nH]c3ccccc3c2Cl)nc2ccccc12
Activity (3T3-L1 [4]): Active | Activity (HepG2 [6]): 51.9% | IC50 (3T3-L1 [8]): > 50 µM | Activity (3T3-L1 [18]): 35.4% | IC50 (HepG2 [26]): > 50 µM

O=c1[nH]c(C2=Nc3ccccc3C2(F)F)nc2ccccc12
Activity (3T3-L1 [4]): Active | Activity (HepG2 [6]): 24.1% | IC50 (3T3-L1 [8]): > 50 µM | Activity (3T3-L1 [18]): 39.4% | IC50 (HepG2 [26]): > 50 µM

Reference: ChEMBL document CHEMBL4145536, “Design, synthesis and biological evaluation of novel bouchardatine analogs as potential inhibitors of adipogenesis/lipogenesis in 3T3-L1 adipocytes” (Eur J Med Chem, 2018)
